According to publication PMC6881293, “Nanomolar-potency ‘co-potentiator’ therapy for cystic fibrosis caused by a defined subset of minimal function CFTR mutants” (Scientific Reports, 2019):

Tests used:
W1282C-CFTR = molecular target: T1, W1282C-CFTR (Homo sapiens, UniProt P13569, W1282C); assay: Short-circuit current in FRT cells expressing W1282C-CFTR; type: cell-based; conditions: 20 µM forskolin, 5 µM VX-770, 20 µM ASP-11
T1 construct: introduced into full-length CFTR cDNA in the vector pcDNA3.1/Zeo (+); expressed in transfected cells
T1 sequence (P13569 whole entry W1282C): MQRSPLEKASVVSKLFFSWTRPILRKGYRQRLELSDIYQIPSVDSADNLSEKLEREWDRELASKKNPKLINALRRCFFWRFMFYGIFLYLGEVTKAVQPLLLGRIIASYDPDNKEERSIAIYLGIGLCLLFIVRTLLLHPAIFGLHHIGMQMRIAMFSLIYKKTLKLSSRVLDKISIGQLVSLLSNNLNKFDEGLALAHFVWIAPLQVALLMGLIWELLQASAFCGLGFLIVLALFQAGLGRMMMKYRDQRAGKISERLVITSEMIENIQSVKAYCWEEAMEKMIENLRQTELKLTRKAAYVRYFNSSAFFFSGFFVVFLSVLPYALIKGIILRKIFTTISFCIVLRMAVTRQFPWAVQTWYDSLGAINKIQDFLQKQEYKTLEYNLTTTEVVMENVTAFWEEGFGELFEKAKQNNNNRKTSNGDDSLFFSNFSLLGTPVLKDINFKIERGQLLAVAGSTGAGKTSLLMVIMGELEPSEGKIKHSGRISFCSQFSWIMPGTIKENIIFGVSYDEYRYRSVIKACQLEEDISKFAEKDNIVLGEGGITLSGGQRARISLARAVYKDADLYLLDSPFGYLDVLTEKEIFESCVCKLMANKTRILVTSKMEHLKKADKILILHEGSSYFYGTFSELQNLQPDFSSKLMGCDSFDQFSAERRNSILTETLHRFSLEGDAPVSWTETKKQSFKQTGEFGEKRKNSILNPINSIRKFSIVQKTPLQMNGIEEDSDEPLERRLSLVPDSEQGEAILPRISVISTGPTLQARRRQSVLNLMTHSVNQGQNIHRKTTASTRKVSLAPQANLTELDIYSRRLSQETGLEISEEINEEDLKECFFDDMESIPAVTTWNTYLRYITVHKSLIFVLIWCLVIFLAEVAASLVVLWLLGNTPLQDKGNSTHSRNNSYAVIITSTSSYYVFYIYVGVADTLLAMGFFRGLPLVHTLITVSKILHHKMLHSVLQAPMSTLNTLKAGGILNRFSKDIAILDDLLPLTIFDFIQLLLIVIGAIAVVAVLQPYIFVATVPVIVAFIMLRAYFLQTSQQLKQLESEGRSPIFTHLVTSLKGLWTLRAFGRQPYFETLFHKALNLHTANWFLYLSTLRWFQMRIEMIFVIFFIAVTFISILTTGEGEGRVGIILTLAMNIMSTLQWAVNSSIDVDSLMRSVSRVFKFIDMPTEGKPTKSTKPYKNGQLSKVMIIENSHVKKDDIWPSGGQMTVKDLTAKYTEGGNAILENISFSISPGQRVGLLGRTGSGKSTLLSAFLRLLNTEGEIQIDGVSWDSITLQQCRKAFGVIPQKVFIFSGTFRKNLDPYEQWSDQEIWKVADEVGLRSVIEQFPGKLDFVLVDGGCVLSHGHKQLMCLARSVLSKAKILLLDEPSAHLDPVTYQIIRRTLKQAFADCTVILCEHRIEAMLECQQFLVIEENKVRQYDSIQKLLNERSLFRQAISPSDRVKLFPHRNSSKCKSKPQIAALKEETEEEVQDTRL
Procedure: (§1) Figure 1 Co-potentiator ASP-11 activity in minimal function CFTR mutants in transfected FRT cells. (A) Structure of ASP-11. (B) Location of minimal function CFTR mutants studied herein. (C) Representative short-circuit current data in FRT cells expressing I1234del-CFTR, Q1313X-CFTR and S492F-CFTR in response to 20 µM forskolin (fsk), 5 µM VX-770, 20 µM ASP-11 and 10 μM CFTRinh-172. As indicated, cells were treated with 3 µM VX-809 for 18–24 h prior to measurements. (n = 3) (D). Representative short-circuit current data in FRT cells expressing predicted W1282X-CFTR read-through products W1282L-CFTR, W1282R-CFTR and W1282C-CFTR (without and with VX-809 pretreatment) (n = 3). MSD, membrane spanning domain; NBD, nucleotide binding domain; R, regulatory domain.
(§2) Compounds that promote read-through of PTCs to generate full-length CFTR have shown limited efficacy in cell culture studies[15]–[17]. Though the read-through drug ataluren (PTC124) was ineffective in clinical trials, newer compounds are in development. We investigated the ability of ASP-11 to activate chloride current in predicted W1282X-CFTR read-through products. […] FRT cell lines were generated that stably expressing W1282L-, W1282C- and W1282R-CFTR.
(§3) Short-circuit current was measured on cells cultured on Snapwell clear permeable supports (Corning) as described[10],[11]. […]

R334W-CFTR = molecular target: T2, R334W-CFTR (Homo sapiens, UniProt P13569, R334W); assay: Short-circuit current in FRT cells expressing R334W-CFTR; type: cell-based; conditions: 20 μM forskolin, 5 µM VX-770, 20 µM ASP-11
T2 construct: expressed in transfected cells; host or cells: Fischer rat thyroid (FRT) cells; gift from Drs; Andras Rab and Jeong Hong (Emory University)
T2 sequence (P13569 whole entry R334W): as the sequence (P13569 whole entry W1282C) above, with R334W, C1282W counted along it
Procedure: (§4) As shown in Fig. 1C and summarized in Fig. 2, ASP-11 acted in synergy with VX-770 to increase chloride current in FRT cells expressing the NBD2 mutations I1234del- and Q1313X-CFTR by ~3–9-fold compared to VX-770. I1234del- and Q1313X-CFTR-expressing cells were also treated with VX-809 for 24 hours (to consider the effect of available CFTR therapeutics) with 2–3-fold greater currents observed.
(§5) Figure 2 Summary of short-circuit current responses to modulators for CFTR mutants in transfected FRT cells. Responses to indicated CFTR mutants with 20 μM forskolin, 5 µM VX-770, 20 µM ASP-11 (with or without 3 µM VX-809 overnight). For reference, data shown for cells expressing wild type CFTR. Mean ± S.E.M., n = 3.
(§6) Short-circuit current was measured on cells cultured on Snapwell clear permeable supports (Corning) as described[10],[11]. Hemichambers were connected to a DVC-1000 voltage clamp (World Precision Instruments Inc., Sarasota, FL) via Ag/AgCl electrodes and 3 M KCl agar bridges for recording of the short-circuit current. For human airway epithelial cells, symmetrical HCO3^−-buffered solutions (in mM: 120 NaCl, 5 KCl, 1 MgCl2, 1 CaCl2, 5 Hepes, 25 NaHCO3, 10 glucose, pH 7.4) for basolateral and apical side were used. […]

L1077P-CFTR = molecular target: T3, L1077P-CFTR (Homo sapiens, UniProt P13569, L1077P); assay: Short-circuit current in FRT cells expressing L1077P-CFTR; type: cell-based; conditions: 20 μM forskolin, 5 µM VX-770, 20 µM ASP-11
T3 construct: expressed in transfected cells; host or cells: Fischer rat thyroid (FRT) cells; gift from Drs; Andras Rab and Jeong Hong (Emory University)
T3 sequence (P13569 whole entry L1077P): as the sequence (P13569 whole entry W1282C) above, with L1077P, C1282W counted along it
Procedure: as §4, §5, §6

R1162X-CFTR = molecular target: T4, R1162X-CFTR (Homo sapiens, UniProt P13569); assay: Short-circuit current in FRT cells expressing R1162X-CFTR; type: cell-based; conditions: 5 µM VX-770, 20 µM ASP-11, 3 µM VX-809 overnight
T4 construct: expressed in transfected cells; host or cells: Fischer rat thyroid (FRT) cells; gift from Drs; Andras Rab and Jeong Hong (Emory University)
T4 sequence (P13569 1-1161 limits assumed): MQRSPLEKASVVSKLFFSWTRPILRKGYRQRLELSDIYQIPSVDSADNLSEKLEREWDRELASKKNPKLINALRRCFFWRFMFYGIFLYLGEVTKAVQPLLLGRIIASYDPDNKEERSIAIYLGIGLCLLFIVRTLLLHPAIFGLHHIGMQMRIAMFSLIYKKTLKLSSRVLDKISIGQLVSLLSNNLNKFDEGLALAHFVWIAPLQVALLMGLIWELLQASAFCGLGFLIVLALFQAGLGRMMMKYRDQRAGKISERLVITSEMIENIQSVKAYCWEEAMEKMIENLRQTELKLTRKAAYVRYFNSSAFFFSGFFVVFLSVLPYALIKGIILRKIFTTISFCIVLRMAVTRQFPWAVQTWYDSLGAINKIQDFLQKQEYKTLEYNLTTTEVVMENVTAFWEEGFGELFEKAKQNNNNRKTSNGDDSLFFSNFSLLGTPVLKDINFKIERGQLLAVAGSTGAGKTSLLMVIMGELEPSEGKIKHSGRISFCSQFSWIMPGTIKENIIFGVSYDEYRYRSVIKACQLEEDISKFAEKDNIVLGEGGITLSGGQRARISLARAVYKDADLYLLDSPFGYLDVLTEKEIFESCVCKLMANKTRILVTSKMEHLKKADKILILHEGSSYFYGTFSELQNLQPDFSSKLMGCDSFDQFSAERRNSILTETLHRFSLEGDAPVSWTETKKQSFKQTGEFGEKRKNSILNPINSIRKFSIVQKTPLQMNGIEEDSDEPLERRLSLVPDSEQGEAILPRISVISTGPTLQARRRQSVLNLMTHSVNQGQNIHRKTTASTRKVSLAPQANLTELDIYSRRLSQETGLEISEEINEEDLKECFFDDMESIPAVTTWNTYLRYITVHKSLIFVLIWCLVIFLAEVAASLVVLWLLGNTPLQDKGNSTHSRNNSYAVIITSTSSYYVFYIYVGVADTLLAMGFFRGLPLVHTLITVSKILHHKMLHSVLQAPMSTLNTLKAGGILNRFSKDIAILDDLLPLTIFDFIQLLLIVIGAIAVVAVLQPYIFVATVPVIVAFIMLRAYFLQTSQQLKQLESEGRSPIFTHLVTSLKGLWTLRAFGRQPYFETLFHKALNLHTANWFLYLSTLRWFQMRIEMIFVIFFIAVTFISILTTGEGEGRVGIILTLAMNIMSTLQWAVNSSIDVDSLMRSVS
Procedure: as §4, §5
(§7) Short-circuit current was measured on cells cultured on Snapwell clear permeable supports (Corning) as described[10],[11]. Hemichambers were connected to a DVC-1000 voltage clamp (World Precision Instruments Inc., Sarasota, FL) via Ag/AgCl electrodes and 3 M KCl agar bridges for recording of the short-circuit current. For human airway epithelial cells, symmetrical HCO3^−-buffered solutions (in mM: 120 NaCl, 5 KCl, 1 MgCl2, 1 CaCl2, 5 Hepes, 25 NaHCO3, 10 glucose, pH 7.4) for basolateral and apical side were used. For FRT cells, the basolateral membrane was permeabilized with 250 μg/ml amphotericin B, and experiments were done with a chloride gradient using a HCO3^−-buffered solutions (Basolateral (mM): 120 NaCl, 5 KCl, 1 MgCl2, 1 CaCl2, 5 Hepes, 25 NaHCO3, 10 glucose, pH 7.4; apical (mM): 60 NaCl, 60 mM sodium gluconate, 5 KCl, 1 MgCl2, 1 CaCl2, 5 Hepes, 25 NaHCO3, 10 glucose, pH 7.4). All cells were equilibrated with 95% O2, 5% CO2 and maintained at 37 °C during experiments.

G551D-CFTR = system: G551D-CFTR; set-up: method as in PMID 29903467; conditions: previously showed; cited from earlier work
W1282L-CFTR = molecular target: T5, W1282L-CFTR (Homo sapiens, UniProt P13569, W1282L); assay: Short-circuit current in FRT cells expressing W1282L-CFTR; type: cell-based; conditions: 20 µM forskolin, 5 µM VX-770, 20 µM ASP-11
T5 construct: introduced into full-length CFTR cDNA in the vector pcDNA3.1/Zeo (+); expressed in transfected cells
T5 sequence (P13569 whole entry W1282L): as the sequence (P13569 whole entry W1282C) above, with C1282L counted along it
Procedure: as §1, §2, §3

W1282X-CFTR [1] = molecular target: T6, W1282X-CFTR (Homo sapiens, UniProt P13569); set-up: method as in PMID 27895116, PMID 29903467; conditions: transfected FRT cells expressing CFTR1281 (truncation product of W1282X-CFTR); cited from earlier work
T6 construct: expressed in transfected cells
T6 sequence (P13569 1-1281 limits assumed): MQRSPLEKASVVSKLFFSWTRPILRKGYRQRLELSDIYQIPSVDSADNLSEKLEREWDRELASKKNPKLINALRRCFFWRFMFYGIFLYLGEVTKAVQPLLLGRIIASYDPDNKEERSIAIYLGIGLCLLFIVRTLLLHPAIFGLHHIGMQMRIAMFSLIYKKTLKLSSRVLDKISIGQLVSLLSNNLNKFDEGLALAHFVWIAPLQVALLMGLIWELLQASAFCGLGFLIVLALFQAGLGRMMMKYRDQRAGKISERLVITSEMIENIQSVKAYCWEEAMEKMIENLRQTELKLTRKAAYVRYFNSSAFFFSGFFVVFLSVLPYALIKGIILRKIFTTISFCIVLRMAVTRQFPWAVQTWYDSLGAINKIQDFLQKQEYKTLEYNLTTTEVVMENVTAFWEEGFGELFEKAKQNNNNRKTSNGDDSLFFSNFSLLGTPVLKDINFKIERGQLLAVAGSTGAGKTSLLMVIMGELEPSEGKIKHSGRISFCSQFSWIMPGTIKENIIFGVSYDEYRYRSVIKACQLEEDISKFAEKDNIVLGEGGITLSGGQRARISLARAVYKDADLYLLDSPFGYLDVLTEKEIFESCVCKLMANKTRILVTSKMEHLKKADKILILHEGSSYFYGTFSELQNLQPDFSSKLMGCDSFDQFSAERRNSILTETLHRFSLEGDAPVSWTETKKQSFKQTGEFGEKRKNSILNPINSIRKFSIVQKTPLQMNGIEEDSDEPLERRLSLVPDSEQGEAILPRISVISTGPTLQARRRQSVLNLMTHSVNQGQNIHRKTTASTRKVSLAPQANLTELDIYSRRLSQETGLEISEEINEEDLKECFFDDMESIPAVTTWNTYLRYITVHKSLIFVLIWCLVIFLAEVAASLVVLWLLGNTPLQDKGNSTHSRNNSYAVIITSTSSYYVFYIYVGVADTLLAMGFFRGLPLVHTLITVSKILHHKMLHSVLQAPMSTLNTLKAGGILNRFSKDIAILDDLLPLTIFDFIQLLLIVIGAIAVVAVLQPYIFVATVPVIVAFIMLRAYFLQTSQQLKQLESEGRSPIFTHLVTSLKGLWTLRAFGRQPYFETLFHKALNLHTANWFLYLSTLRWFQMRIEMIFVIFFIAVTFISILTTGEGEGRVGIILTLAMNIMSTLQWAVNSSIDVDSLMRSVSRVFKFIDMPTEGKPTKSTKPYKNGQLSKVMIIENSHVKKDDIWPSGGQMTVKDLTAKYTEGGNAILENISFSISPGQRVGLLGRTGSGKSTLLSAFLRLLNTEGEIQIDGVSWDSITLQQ

S492F-CFTR = molecular target: T7, S492F-CFTR (Homo sapiens, UniProt P13569, S492F); assay: Short-circuit current in FRT cells expressing S492F-CFTR; type: cell-based; conditions: 20 µM forskolin, 5 µM VX-770, 20 µM ASP-11, 3 µM VX-809 for 18–24 h
T7 construct: expressed in transfected cells; host or cells: Fischer rat thyroid (FRT) cells; gift from Drs; Andras Rab and Jeong Hong (Emory University)
T7 sequence (P13569 whole entry S492F): as the sequence (P13569 whole entry W1282C) above, with S492F, C1282W counted along it
Procedure: as §1, §4
as §7, with “All cells were equilibrated with 95% O2, 5% CO2 and maintained at 37 °C during experiments.” left out

W1282X-CFTR [2] = molecular target: T6, W1282X-CFTR; assay: Structure-activity testing of analogs in FRT cells expressing W1282X-CFTR; type: cell-based
Procedure: To establish structure-activity relationships, 240 commercially available piperidinepyridoindole analogs and 160 pyrazoloquinoline analogs were tested in FRT cells expressing W1282X-CFTR. In general, the methoxy substituent on the 4-position (R^3) on the pyridoindole ring increased potency (compare A01 vs A534). N-methylation on the pyridoindole ring abolished activity (compare A534 vs A600). For substituent R^1 on the piperidine ring, substituted benzyl gave greatest activity (A061 and A662). Other R^1 substituents, including sulfonamide (A145), alkyl (A764) and carbocyclic (A714), reduced activity. Changing the benzylic carbon from methylene (CH2) to ketone (C=O) abolished activity (A815, A350 and A956).
For R^3, pyridine (D003), benzyl (D035) and substituted methyl-pyrazole (D086) abolished activity. […] The D123 pyrazoloquinoline with R^3 substituted with thiophene-quinoline heterocycle gave the best potency.

N1303K-CFTR = molecular target: T8, N1303K-CFTR (Homo sapiens, UniProt P13569, N1303K); set-up: method as in PMID 30046002; conditions: prior studies; cited from earlier work
T8 construct: expressed in transfected cells
T8 sequence (P13569 whole entry N1303K): as the sequence (P13569 whole entry W1282C) above, with C1282W, N1303K counted along it

| SMILES | effect on short-circuit current after forskolin (W1282C-CFTR) | ASP-11 effect on short-circuit current (R334W-CFTR) | ASP-11 effect on short-circuit current (L1077P-CFTR) | short-circuit current response to modulator (R1162X-CFTR) | activation of G551D-CFTR (G551D-CFTR) | effect on short-circuit current after forskolin (W1282L-CFTR) | increase in chloride current over that produced by a high concentration of VX-770 (W1282X-CFTR [1]) | short-circuit current response to modulator (S492F-CFTR) | Relative Vmax (%) (W1282X-CFTR [2]; Table 1, 100% Vmax corresponds to 20 μM ASP-11) | EC50 (W1282X-CFTR [2]; Table 1, piperidine-pyridoindole analogs) [µM] | response of N1303K-CFTR to modulator (N1303K-CFTR) |
| --- | --- | --- | --- | --- | --- | --- | --- | --- | --- | --- | --- |
| CCCCn1cc(S(=O)(=O)Nc2ccc(CC)cc2)c2cccnc21 [ASP-11] | significant further effects | absence of ASP-11 effect | absence of ASP-11 effect | did not respond | activates G551D-CFTR | little additional | ~ 8 fold | no response | – | – | – |
| COc1ccc2[nH]c3c(c2c1)CCNC31CCN(Cc2ccc(F)cc2F)CC1 [Compound A061] | – | – | – | – | – | – | – | – | 100 | 2 | – |
| CC(C)(C)c1cc(C(C)(C)C)c(NC(=O)c2c[nH]c3ccccc3c2=O)cc1O [VX-770, ivacaftor] | significant further effects | – | – | did not respond | – | little additional | – | no response | – | – | not responsive |
